row,SMILES,melting point
1,CCOP(=O)(CNCc1cccnc1-c1cc(C(C)(C)C)c(O)c(C(C)(C)C)c1)OCC,100 to 101 °C
2,CC(C)(C)c1cc(C=C(C#N)C(N)=S)cc(C(C)(C)C)c1,172 to 174 °C
3,Nc1ccc(Sc2ccnc(N)c2)cc1,141 to 143 °C
4,Cc1cccnc1COc1nn2c(-c3ccccc3)nnc2cc1C12CCC(CC1)C2,214 to 216 °C
5,CCN1CCCC1CNC(=O)c1cc(S(N)(=O)=O)cc2c1OCCO2 (centres undefined),160 to 161 °C
6,Cc1nc2c(N)nc3cccnc3c2n1CC1(O)CCN(C(=O)OC(C)(C)C)CC1,233 to 235 °C
7,CN1CCN(C(=NS(=O)(=O)c2ccc(F)cc2)N2CC(c3ccccc3)C(c3cccnc3)=N2)CC1 (centres undefined),169 to 170 °C
8,Brc1ccc(C#Cc2c3ccccc3c(C#Cc3ccc(Br)cc3)c3ccccc23)cc1,305 °C
9,Cc1c(C(=O)Nc2ccc(OCCN3CCOCC3)c(C#N)c2)cnn1-c1ccc(C(F)(F)F)cc1,191 to 193 °C
10,CCN1CCCC1CNC(=O)c1nc(Cl)c(N)nc1OC (centres undefined),155 °C
11,Cc1cccc2ncn(-c3nnn[nH]3)c(=O)c12,280 to 281 °C
12,COc1ccccc1CP(C)(=O)C1CCCCC1 (centres undefined),108 to 110 °C
13,Cc1c(CO)sc2c(Br)cccc12,129 to 130 °C
14,CCCCCC(=O)CCC(=O)O,67 to 68 °C
15,Fc1ccc(-c2[nH]nc(C3=CCN4CCCC4C3)c2-c2ccncc2)cc1 (centres undefined),209 to 214 °C
16,Cn1cc(C(=O)O)c(=O)c2cc3cc(F)c(N4CCNC(c5ccccc5)C4)cc3nc21 (racemic),265 °C
17,C(=C\c1cc(/C=C/c2c[nH]c3ccccc23)n[nH]1)/c1ccc(OCc2ccccn2)cc1,196 to 199 °C
18,Clc1ccc(-c2cn([C@H]3CN4CCC3CC4)nn2)cc1Cl,108 °C
19,N#CC(=NO)c1cc(F)ccc1F,64 to 67 °C

row,SMILES,melting point
1,c1csc(C2NCCc3ccccc32)c1 (centres undefined),114 to 116 °C
2,CCCCCCCCCCCCCCCNC(=O)OCCOCCOC(=O)NCc1ccccn1,86 to 87 °C
3,CC(C)CC1CC(=O)c2cc(CC(=O)O)ccc21 (centres undefined),140 to 142 °C
4,NS(=O)(=O)c1ccccc1OCC1CO1 (centres undefined),132 to 133 °C
5,CCN1CN2C(=N1)C(c1ccccc1Cl)=NCc1ccsc12,153 to 154 °C
6,COc1cccc(NC(=O)N=C2CCCN2C)c1,123 to 125 °C
7,CC(C)OC(=O)N1CCC(c2ccc3nc(-c4ccc(S(C)(=O)=O)cc4F)oc3c2)CC1,170 to 174 °C
8,O=c1c(Br)c(N2CCC(c3ccccc3)CC2)ccn1CC1CC1,150 °C
9,O=C(CCN1CCOCC1)NCc1ccc2c(c1)Cc1c(-c3ccsc3)n[nH]c1-2,205 to 207 °C
10,COc1ccc(C=C2SC(=S)N(CC(=O)O)C2=O)cc1,250 to 253 °C
11,CSc1cc2nc[nH]c(=O)c2s1,216 to 218 °C
12,CC(=O)Nc1cc([N+](=O)[O-])c(C(=O)O)c([N+](=O)[O-])c1O,199 to 203 °C
13,C=CCNc1nc(-c2ccccc2)ncc1C(=O)OCC,49 to 54 °C
14,CN1Cc2cncn2-c2cccc(Cl)c2C1=O,200 to 201 °C
15,CC(Cn1ncc2ccc(OCc3ccccc3)cc21)O[Si](C)(C)C(C)(C)C (centres undefined),56 to 58 °C
16,O=C(OCc1ccccc1)N1C[C@@H]2CN(c3ccc(N4C[C@H](CO)OC4=O)cc3F)C[C@@H]2C1,168 to 171 °C
17,COc1c2c(c(OC)c(OC)c1OC)CCC(CCOc1ccccn1)CC2,132 to 135 °C
18,CCOC(=O)C(Oc1ccc(Cl)cc1)C(C)C (centres undefined),88 to 91 °C
19,NS(=O)(=O)c1ccc(N2N=C(C(F)(F)F)CC2c2ccccc2)cc1 (centres undefined),132 to 135 °C

# Continued, values first:
row,melting point,SMILES
1,135 to 139 °C,O=C1c2cc(OCCCl)ccc2-c2ccc(OCCCl)cc21
2,149 to 150 °C,CCCCn1c(=O)c(NC(=O)Nc2cc(CO)ccc2C(C)(C)C)c(-c2cccc(OCc3cccnc3)c2)c2cccnc21
3,141 to 142 °C,COC(=O)C(C)(SC)c1ccc(N2C(=O)c3ccccc3C2=O)c(Cl)c1 (centres undefined)
4,163 °C,CS(=O)(=O)OCC(Oc1ccc(F)c(C(N)=O)c1F)c1nc(-c2ccc(C(F)(F)F)cc2)c(Cl)o1 (centres undefined)
5,174 to 175 °C,O=C1N(Cc2ccc(Cl)s2)c2ccccc2C1(O)c1cc(OCc2ccccc2)ccc1O (centres undefined)
6,142 to 144 °C,Cn1c(C(F)(F)F)cc(=O)n(-c2cc(OCC#CCOc3ccccc3)c(Cl)cc2F)c1=O
7,243 to 245 °C,COc1cccc2c(Nc3ccc(O)cc3C)c(C(=O)C(C)C)cnc12
8,104 to 105 °C,COc1ccc(CNc2ccccc2C)cc1O
9,149 to 151 °C,O=C(O)[C@H](Cc1ccccc1)C[C@@H](Cc1ccccc1)C(=O)N[C@@H](COCc1ccccc1)C(=O)O
10,159 to 162 °C,Cc1nnc(-c2ccccc2F)n2nc(OCc3ncnn3C)c(-c3ccccc3)c12
11,170 °C,CCCCOc1ccc(-c2ncc(C#N)c(Cl)n2)cc1
12,59 to 61 °C,CCOC(=O)COc1ccc(CN2C(=O)C3(COc4cc5c(cc43)OCCO5)c3ccccc32)cc1 (centres undefined)
13,282 to 286 °C,O=c1[nH]c2ccc(Cl)cc2c(-c2ccccc2F)c1CO
14,94 to 98 °C,Clc1cccc(Oc2ccc(OCn3cnc(Cl)c3Cl)cc2)n1
15,82 °C,CCc1cc(CCCc2ccc(CO)c(CO)c2)ccc1O
16,88 to 90 °C,COC(=O)[C@@H]1Cc2ccccc2N1C(=O)[C@H](CC(=O)OCc1ccccc1)NC(=O)C(F)(F)F

row,melting point,SMILES
1,173 to 175 °C,Cc1cc(C2(C(F)(F)F)CC(c3ccc(C(N)=O)cc3)=NO2)ccc1NC(=O)c1cccc(I)c1C(=O)NC(C)C (centres undefined)
2,163 to 165 °C,CC1c2ccccc2-c2ccccc2N1S(=O)(=O)c1ccc(O)c(O)c1 (centres undefined)
3,251 to 252 °C,CNC(=O)c1cc(OC)c(-c2ccc(C[C@H](NC(=O)c3c(Cl)cccc3Cl)C(=O)O)cc2)c(OC)c1
4,127 to 130 °C,O=C1c2cc(OCc3ccc4ccccc4n3)ccc2SCC1Cc1ccccc1 (centres undefined)
5,148 to 149 °C,CCc1ccc(N=c2sc3ncccc3c(=O)n2CC)cc1
6,126 to 130 °C,Cc1ccc(-c2ccccc2-c2c(OC(C)C)c(=O)c2=O)cc1
7,220 to 222 °C,Cc1cc2c(c3ccc(=O)[nH]c13)OC(CNC(=O)C(C)(C)NC(=O)OCc1ccccc1)C2 (centres undefined)
8,192 to 193 °C,CC(C)(C)c1cc(C(=O)c2ccc(O)cc2O)cc(C(C)(C)C)c1O
9,212 to 213 °C,COc1cc(N2CCN([C@H]3CC[C@H](c4cn(C)c5ccc(C#N)cc54)CC3)CC2)c2ncccc2c1C
10,102 °C,COc1ccccc1NC(=O)Nc1nc(Nc2ccccc2-c2ccccc2)nc(N(CCC(=O)O)Cc2ccc(C)cc2)n1
11,171 to 173 °C,Nn1c(C(F)(F)F)cc(=O)n(-c2c(F)cc(Cl)c3c2ONC3c2ccccc2)c1=O (centres undefined)
12,115 °C,COC(=O)C1=C(C)NC(C)=C(C(=O)OCCCCCCCCBr)C1c1cccc([N+](=O)[O-])c1 (centres undefined)
13,154 to 155 °C,CCCCCCc1ccc(O)c(C(=O)Nc2ccc([N+](=O)[O-])cc2)c1
14,92.5 to 94 °C,COC(=O)c1ccccc1-c1ncc(-c2cccc(C(F)(F)F)c2)o1
15,228 °C,Cc1ccc(S(=O)(=O)Cc2c(C(=O)O)nn(-c3ccccc3)c2O)cc1
